# Measured values taken from ChEMBL document CHEMBL1201862, “PubChem BioAssay data set” (2004).
# Activity calls are given as the source filed them.
# How the values were obtained:
# [1] = NIH-3T3 fibroblast cytotoxicity, dose response, cytotoxicity control, cell-based, fluorescence, Alamar Blue, secondary assay (AID 2327); type: functional;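 also: NIH-3T3 mouse fibroblasts cultured with fluconazole at 8 µg/mL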
# [2] = fluconazole-exposed Candida albicans growth modulators – fluorescence, retest, confirmation (AID 2467); type: functional, cell-based
# [3] = biological target: Paired box protein Pax-8 (Homo sapiens, UniProt Q06710); experiment: PAX8 transcriptional activity inhibition in RMG-I – RMG-I cells, luciferase, cherry-pick, dose response (AID 687027); type: functional, cell-based;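 also: luciferase reporter driven by Pax8 target thyroperoxidase promoter measured by SteadyGlo luminescence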
# Paired box protein Pax-8, sequence (Q06710 whole entry): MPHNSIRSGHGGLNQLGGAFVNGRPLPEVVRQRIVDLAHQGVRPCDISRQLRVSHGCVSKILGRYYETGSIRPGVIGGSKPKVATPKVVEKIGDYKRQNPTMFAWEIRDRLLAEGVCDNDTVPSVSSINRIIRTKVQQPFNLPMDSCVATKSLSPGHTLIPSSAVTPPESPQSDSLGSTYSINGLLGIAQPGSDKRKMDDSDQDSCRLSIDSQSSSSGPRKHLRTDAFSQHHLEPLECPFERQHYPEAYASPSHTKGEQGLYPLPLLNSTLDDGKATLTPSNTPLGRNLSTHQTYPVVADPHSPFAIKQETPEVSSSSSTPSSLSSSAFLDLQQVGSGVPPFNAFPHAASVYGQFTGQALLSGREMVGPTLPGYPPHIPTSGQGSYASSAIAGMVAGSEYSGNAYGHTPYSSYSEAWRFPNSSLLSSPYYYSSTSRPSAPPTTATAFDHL
# [4] = biological target: T1, Streptokinase A (Streptococcus pyogenes serotype M1, UniProt P10520); experiment: viability-normalized secreted streptokinase activity reduction – plasminogen activation absorbance, OD405, dose response (AID 1914); type: functional, Streptococcus pyogenes M1 GAS;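 also: secreted streptokinase activity via plasminogen activation per viability signal from cell pellet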
# T1 sequence (P10520 whole entry): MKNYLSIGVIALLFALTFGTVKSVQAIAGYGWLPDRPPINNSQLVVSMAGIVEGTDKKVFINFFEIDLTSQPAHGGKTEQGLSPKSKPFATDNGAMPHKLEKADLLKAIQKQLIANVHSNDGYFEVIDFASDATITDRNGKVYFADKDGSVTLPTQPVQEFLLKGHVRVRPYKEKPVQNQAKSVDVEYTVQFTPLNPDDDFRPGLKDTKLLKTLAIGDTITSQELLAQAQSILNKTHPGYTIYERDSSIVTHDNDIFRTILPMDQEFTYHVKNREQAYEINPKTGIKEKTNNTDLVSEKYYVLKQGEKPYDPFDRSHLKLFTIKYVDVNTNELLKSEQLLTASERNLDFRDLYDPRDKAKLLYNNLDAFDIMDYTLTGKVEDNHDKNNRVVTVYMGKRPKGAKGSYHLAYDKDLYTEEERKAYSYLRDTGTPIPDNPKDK
# [5] = tested on: Streptococcus; experiment: GAS UMAA2166 growth inhibition – luminescence, BacTiterGlo, counter-screen for streptokinase expression inhibitor project, dose response (AID 1915); type: functional, organism-based;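 also: potency for reduction of bacterial viability or growth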
# [6] = tested on: Streptococcus sp. 'group A'; experiment: Streptococcus pyogenes SK(-)GAS viability under kanamycin – luminescence, BacTiterGlo, confirmation, counter-screen for streptokinase expression inhibitor project, dose response (AID 1900); type: functional, organism-based
# [7] = viability of HCT116 lacking mutant beta-catenin – cell-based, human colon tumor, dose response (AID 1045); type: functional;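 also: HCT116 colon tumor cells with beta catenin knocked out; cells exposed to compound for 60 hours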
# [8] = viability of PTEN-deleted HCT116 cells – cell-based, HCT116 PTEN knockout, dose response (AID 1047); type: functional;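 also: HCT116 colon tumor cells with PTEN knocked out; cells exposed to compound for 60 hours before readout; potency for loss of cell viability measured by luminescence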
# [9] = biological target: T2, Heat shock factor protein 1 (Mus musculus, UniProt P38532); experiment: enhancement of HSF1-driven luciferase signal – cell-based, NIH3T3, luminescence, dose retest, confirmation (AID 435004); type: functional;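 also: stress induced by proteasome inhibitor MG132 added 30 min after compound; luciferase reporter driven by HSF1 response element in NIH3T3 cells; actives raise luminescence as potentiators of the MG132 stress response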
# T2 sequence (P38532 whole entry): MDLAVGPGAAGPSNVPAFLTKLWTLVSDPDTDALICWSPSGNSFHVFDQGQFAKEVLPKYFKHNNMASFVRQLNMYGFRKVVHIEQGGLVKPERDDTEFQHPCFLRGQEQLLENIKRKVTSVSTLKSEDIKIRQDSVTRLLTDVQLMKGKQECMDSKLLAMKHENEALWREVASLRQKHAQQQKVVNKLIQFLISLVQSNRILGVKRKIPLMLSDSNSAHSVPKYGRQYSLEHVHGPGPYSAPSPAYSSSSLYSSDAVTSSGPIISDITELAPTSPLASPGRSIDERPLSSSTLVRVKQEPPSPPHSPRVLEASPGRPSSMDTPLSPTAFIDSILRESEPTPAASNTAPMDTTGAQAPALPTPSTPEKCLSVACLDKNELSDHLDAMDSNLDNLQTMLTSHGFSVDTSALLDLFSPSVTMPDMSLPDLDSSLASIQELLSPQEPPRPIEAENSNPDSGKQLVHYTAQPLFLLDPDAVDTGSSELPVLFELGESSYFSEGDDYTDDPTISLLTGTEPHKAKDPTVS
# [10] = cells; type: functional
# [11] = biological target: T3, Corticotropin-releasing factor receptor 2/Corticotropin-releasing factor-binding protein (Homo sapiens, UniProt P24387+Q13324); experiment: activators of CRF receptor 2 with binding protein – uHTS hits, confirmation (AID 602473); type: functional; details: read-out: EC50_Mean
# T3 sequence (Q13324 whole entry): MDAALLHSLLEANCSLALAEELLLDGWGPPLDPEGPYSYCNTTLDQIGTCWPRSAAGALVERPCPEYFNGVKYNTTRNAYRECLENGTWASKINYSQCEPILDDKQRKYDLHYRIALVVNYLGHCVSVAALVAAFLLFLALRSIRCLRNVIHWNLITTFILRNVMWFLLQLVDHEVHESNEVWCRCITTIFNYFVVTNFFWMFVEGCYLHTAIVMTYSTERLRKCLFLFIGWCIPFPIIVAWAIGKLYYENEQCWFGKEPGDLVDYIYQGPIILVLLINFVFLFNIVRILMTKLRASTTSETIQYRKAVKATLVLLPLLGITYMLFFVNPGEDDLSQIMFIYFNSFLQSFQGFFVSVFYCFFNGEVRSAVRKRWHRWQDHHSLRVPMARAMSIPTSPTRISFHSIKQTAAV
# T3 sequence (P24387 whole entry): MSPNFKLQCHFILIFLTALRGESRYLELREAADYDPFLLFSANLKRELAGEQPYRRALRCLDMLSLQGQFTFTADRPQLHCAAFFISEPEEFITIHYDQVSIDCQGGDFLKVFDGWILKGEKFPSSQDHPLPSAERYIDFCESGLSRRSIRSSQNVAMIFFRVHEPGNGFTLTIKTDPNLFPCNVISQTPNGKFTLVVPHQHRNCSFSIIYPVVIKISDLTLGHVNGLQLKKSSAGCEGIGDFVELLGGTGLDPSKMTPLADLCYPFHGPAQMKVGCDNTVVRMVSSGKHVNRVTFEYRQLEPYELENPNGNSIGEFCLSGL
# [12] = biological target: T3, Corticotropin-releasing factor receptor 2/Corticotropin-releasing factor-binding protein; experiment: Dose Response confirmation of uHTS hits for small molecule antagonists of the CRF-binding protein and CRF-R2 receptor complex.; type: functional; details: read-out: IC50_Mean
# [13] = tested on: INS1; experiment: INS-1E survival protection against cytokine death – cell-based, luminescence, retest, dose response (AID 449756); type: functional; details: Rattus norvegicus;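 also: cell death triggered by IL-1 beta plus TNF-alpha plus IFN-gamma mixture; protective hits raise ATP signal compared with cytokine alone wells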
# [14] = blockers of HIV-1 ZM109 envelope-driven cell-cell fusion – HeLa effector, CEM target cells, luciferase, cherry-pick, dose response (AID 652058); type: functional, cell-based;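 also: luciferase signal from HIV-1 Env mediated cell-cell fusion of effector and target cells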
# [15] = blockers of HIV-1 envelope-mediated cell-cell fusion – cherry-pick, dose response (AID 652057); type: functional, cell-based
smiles,measurement,setting,value
COCC(=O)Nc1nc2n(n1)C(c1ccccc1Cl)CC(c1ccc(OC)cc1)N2 (centres undefined),EC50,[1],> 160 µM (inactive)
same,EC50,[2],> 38 µM (not active)
Cc1cccc(-c2ccc([C@H]3[C@H](CO)N4CCCCN(S(=O)(=O)c5ccccc5C)C[C@@H]34)cc2)c1,AC50,[3],11.4 µM (active)
COc1ccc(CCn2c(C)cc(C(=O)COC(=O)c3ccc(NC(=O)CC#N)cc3)c2C)cc1,EC50,[4],> 150 µM (not active)
same,EC50,[5],> 150 µM (not active)
same,EC50,[6],61.7 µM (active)
COc1ccc(CCNC(=O)c2c(N)n(CCN3CCOCC3)c3nc4ccccc4nc23)cc1,EC50,[7],18.4 µM (active)
same,EC50,[8],13.4 µM (active)
O=C1NN(c2ccccc2)C(=O)/C1=C\c1ccc2c(c1)OCO2,EC50,[9],> 260 µM (inactive)
CCOC(=O)CNc1ccc(C(=O)OCC)cc1[N+](=O)[O-],IC50,[10],13.3 µM (active)
COc1ccc(Nc2nc(N)nc(CN3CCc4ccccc4C3)n2)cc1,EC50,[7],33.2 µM (active)
same,EC50,[8],41.9 µM (active)
CCOc1ccccc1NC(=O)N1CCCC(c2nc(O)c3nnn(Cc4ccc(C)cc4)c3n2)C1 (centres undefined),EC50,[7],37.4 µM (active)
same,EC50,[8],33.7 µM (active)
C[C@H](CO)N1C[C@H](C)[C@H](CN(C)S(=O)(=O)c2cccs2)OCCCC[C@H](C)Oc2ccc(NC(=O)NC3CCCCC3)cc2C1=O,AC50,[3],10.7 µM (active)
C=CCN1C(=O)NC(c2ccccc2)(C(F)(F)F)S/C1=C(\C#N)c1nnc(N2CCOCC2)n1-c1ccccc1 (centres undefined),EC50,[9],22.1 µM (active)
COc1ccc(N(CC(=O)NCCC2=CCCCC2)S(=O)(=O)c2ccccc2)cc1,EC50,[9],> 260 µM (inactive)
CCOC(=O)C1CCN(c2nc3cc(OC)ccc3cc2C#N)CC1,EC50,[11],> 53 µM (inactive)
same,IC50,[10],8.59 µM (active)
same,IC50,[12],> 47.1 µM (inactive)
Nc1c(Cl)ncnc1N/N=C/c1ccccn1,AC50,[13],0.521 µM (active)
COc1cc(OC)cc(-c2nc3ccccc3c(=O)o2)c1,IC50,[10],8.58 µM (active)
O=C1CCC(/C=C/c2ccccc2)=NN1,EC50,[9],> 260 µM (inactive)
COc1cccc(/N=C/C2=C(O)OC3(CCCCC3)OC2=O)c1,EC50,[9],> 260 µM (inconclusive)
O=C(c1ccc(Br)cc1)N1CCCC(c2nc(-c3cccs3)no2)C1 (centres undefined),EC50,[9],> 260 µM (inactive)
CCCCCc1ccc(-c2cn(CN3C(=O)c4ccccc4C3=O)nn2)cc1,AC50,[13],1.82 µM (active)
COc1ccc(S(=O)(=O)N[C@H]2C=C[C@H](CC(=O)N3CCN(c4ccccc4)CC3)O[C@@H]2CO)cc1,AC50,[14],36.8 µM (active)
same,AC50,[15],26.7 µM (active)
c1ccc2c(Nc3nc4c(s3)CCCC4)cccc2c1,EC50,[4],19.6 µM (inconclusive)
same,EC50,[5],> 150 µM (not active)
same,EC50,[6],14.4 µM (active)
CSCC[C@H](NC(=O)OC(C)(C)C)C(=O)N/N=C/c1cc2ccc(C)cc2nc1Cl,EC50,[7],17.7 µM (active)
same,EC50,[8],18.7 µM (active)
CCOc1ccc(CN(CCCl)CCCl)cc1C(=O)OC,EC50,[9],12.6 µM (active)
